Series [1] in a line: in vitro. As to conditions: human, hepatocytes.
Series [2] addresses T1, 5-HT6 receptor (Homo sapiens, UniProt P50406). The series is described as follows: In vitro affinity for human 5-HT6 receptors ([3H]-LSD binding, CHO cell membranes). Also on record: host or cells: CHO/Gα16/mtAEQ/h5HT6-A1 cells. The note with it: read-out: 5-HT6 pKi (converted).
Method: In Vitro Affinity for Human 5-HT6 Receptors
Affinity for human 5-HT6 receptors was measured in a membrane preparation of CHO-cells transfected with human 5-HT6 receptors by binding studies using [^3H]-N-Methyl-Lysergic acid diethylamide ([^3H]-LSD) as ligand. […] CHO/Gα16/mtAEQ/h5HT6-A1 cells were grown in T-flasks in CHO-S-SFM II medium (Gibco BRL), supplemented with 1% dialysed FCS, 2 mM L-glutamine, Geneticin 500 μg/ml and Zeocin 200 μg/ml. […] After thawing cells were centrifuged during 3 minutes at 1500 g at 4° C. […] The assay was established so as to achieve steady state conditions and to optimize specific binding. For the 5-HT6 receptor, membranes from 5.10^5 cells were incubated with 5.0 nM [^3H]-LSD at 37° C. for 30 minutes. Nonspecific binding was determined using 10^−5 M serotonin. Assays were terminated by vacuum filtration through glass fibre filters (GF/B) which had been pretreated with 0.5% polyethyleneimine. Total and bound radioactivity was determined by liquid scintillation counting. […] Compounds were tested at a 4 log concentration range; all determinations were performed as triplicates. IC50 values were determined by non-linear regression analysis using Hill equation curve fitting. The inhibition constants (Ki-values) were calculated from the Cheng-Preushoff equation: Ki=IC50:(1+L/Kd) wherein L represents the concentration [^3H]-LSD in the assay, and Kd its affinity for the receptor. Results are expressed as pKi-values, means±SD of at least three separate experiments.
The nature of series [3]: in vitro. The note with it: rat, hepatocytes.
Series [4] addresses T1, 5-HT6 receptor. The series is described as follows: In vitro functional activity ((ant)agonism) on human 5-HT6 receptors, CHO-human-5HT6-Aequorin assay. The class given is cell-based. Also noted: host or cells: CHO AequoScreen recombinant cell line (expresses mitochondrial targeted apo-Aequorin).
Method: Human-5-HT6-Aequorin cells express mitochondrial targeted apo-Aequorin. Cells have to be loaded with coelanterazine, in order to reconstitute active Aequorin. […] This luminescent response is dependent on the agonist concentration. Luminescence is measured using the MicroBeta Jet (Perkin Elmer). Agonistic effects of compounds are expressed as pEC50. […] Compounds were tested at a 5 log concentration range, and 3 independent experiments were performed in duplicate.
Setting [5] is: [3H]-LSD, membranes of CHO cells with human 5-HT6, comparison table Example 6.
The mark [6] stands for this setting: [3H]-LSD, membranes of CHO cells with human 5-HT6, main compound table.
[7] abbreviates: antagonism of 10^-8 M α-methylserotonin induced luminescence, main compound table.
Where [8] appears, read: antagonism of 10^-8 M α-methylserotonin induced luminescence, main compound table, read-out: 5-HT6 pA2 (converted).
[9] abbreviates: antagonism of 10^-8 M α-methylserotonin induced luminescence, comparison table Example 6.

Each structure is given as a SMILES string. Read-outs that look alike come from different tables or passages of the source.

T1 sequence (P50406 whole entry): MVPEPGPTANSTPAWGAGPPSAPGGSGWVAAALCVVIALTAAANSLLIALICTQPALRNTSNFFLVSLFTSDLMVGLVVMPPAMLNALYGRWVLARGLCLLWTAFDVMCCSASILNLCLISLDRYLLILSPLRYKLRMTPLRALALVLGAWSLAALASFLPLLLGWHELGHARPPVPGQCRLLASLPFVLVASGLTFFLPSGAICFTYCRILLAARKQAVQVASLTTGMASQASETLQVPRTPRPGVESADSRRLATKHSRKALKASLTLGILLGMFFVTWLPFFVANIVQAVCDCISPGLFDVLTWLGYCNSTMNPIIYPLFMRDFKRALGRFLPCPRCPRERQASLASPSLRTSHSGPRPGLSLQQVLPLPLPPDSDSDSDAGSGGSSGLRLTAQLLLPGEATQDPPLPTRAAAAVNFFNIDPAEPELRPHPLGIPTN

In general, melting point refers to the temperature, or range, at which the solid turns liquid. With `CCN/C(=N\S(=O)(=O)c1ccc(C(N)=O)cc1)N1CC(CC)C=N1` (stereo not drawn) [Compound 43, 4-{[Ethylamino-(4-ethyl-4,5-dihydro-pyrazol-1-yl)-methylene]-sulfamoyl}-benzamide], the melting point lay in the range of 146 to 149 °C.
In general, half-life refers to how long it takes for the measured level to halve. A higher half-life goes with slow decline. In the case of `CCN/C(=N\S(=O)(=O)c1ccc(N)c(Cl)c1)N1CC2(C=N1)CCCC2` [Compound 14], the half-life at 1 μg/ml in series [1] amounted to 51 min; in series [3], 17 min. For the same compound, the Ki in series [2] (setting [5]) and in series [2] (setting [6]) was 1.58 nM each time. The “5-HT6 pA2” value in series [4] (setting [7]) is listed as 9.0.
For the compound `CCN/C(=N\S(=O)(=O)c1ccc(N)c(Cl)c1)N1CC(CC)C=N1` (single isomer, unassigned) [Compound 11], the Ki in series [2] (setting [6]) is 1 nM. For the same compound, the Kb in series [4] (setting [8]) is 0.501 nM.
As for `CCN/C(=N\S(=O)(=O)c1ccc(O)cc1)N1CC(C)(C)C=N1` [Compound 22], the results for the half-life at 1 μg/ml in series [1] and in series [3] were 1440 min and 33 min, respectively. Also, the Ki in series [2] (setting [5]) and in series [2] (setting [6]) was 12.6 nM in each case. The Kb in series [4] (setting [8]) is 5.01 nM.
Take `CCN/C(=N\S(=O)(=O)c1cc(O)cc(Cl)c1)N1CC2(C=N1)CCCCC2` [Compound 55]: the Kb in series [4] (setting [8]) is 0.2 nM.
For `CCN/C(=N\S(=O)(=O)c1ccc2c(c1)CCN2)N1CC2(C=N1)CCCCC2` [Compound 59], the Ki in series [2] (setting [6]) is 7.94 nM.
On to `CCN/C(=N\S(=O)(=O)c1ccc(O)cc1)N1CC2(C=N1)CCNCC2` [Compound 50], for which, in series [2] (setting [6]), the Ki is 12.6 nM.
For `CCN/C(=N\S(=O)(=O)c1cccc(N)c1)N1CC(CC)C=N1` (stereo not drawn) [Compound 29], in series [2] (setting [6]), the Ki was 63.1 nM. For the same compound, in series [4] (setting [8]), the Kb was 100 nM.
For `CCN/C(=N\S(=O)(=O)c1ccc(N)cc1)N1CC2(C=N1)CCNCC2` [Compound 47, 4-Amino-N-[ethylamino-(2,3,8-triaza-spiro[4.5]dec-3-en-2-yl)-methylene]-benzenesulfonamide], in series [4] (setting [7]), the “5-HT6 pA2” value is 8.6.
Turning to `CCN/C(=N\S(=O)(=O)c1ccc(N)cc1)N1CC2(C=N1)CCCC2` [Compound 4, 4-Amino-N-[(2,3-diaza-spiro[4.4]non-3-en-2-yl)-ethylamino-methylene]benzene-sulfonamide], the melting point fell in the range of 141 to 142 °C. Moreover, the Ki in series [2] (setting [6]) is 10 nM. Also, the Kb in series [4] (5-HT6 pA2, antagonism of 10^-8 M α-methylserotonin induced luminescence, main compound table) was 5.01 nM.
`CCN/C(=N\S(=O)(=O)c1ccc(O)cc1)N1CC(CC)C=N1` (stereo not drawn) [Compound 19, N-[Ethylamino-(4-ethyl-4,5-dihydro-pyrazol-1-yl)-methylene]-4-hydroxybenzenesulfonamide]: the half-life at 1 μg/ml in series [1] was determined as 354 min; in series [3], 19 min. Further, the Ki in series [2] (setting [5]) and in series [2] (setting [6]) was 3.16 nM each time. Further, the Kb in series [4] (setting [8]) is 2.51 nM.
For the compound `CCN/C(=N\S(=O)(=O)c1ccc(N)c(Cl)c1)N1CC(C)(C)C=N1` [Compound 13, 4-Amino-3-chloro-N-[(4,4-dimethyl-4,5-dihydro-pyrazol-1-yl)-ethylamino-methylene]-benzenesulfonamide], the half-life at 1 μg/ml is 700 min in series [1] and 22 min in series [3]. For the same compound, the Ki in series [2] (setting [5]) and in series [2] (setting [6]) was 6.31 nM each time. For the same compound, the Kb in series [4] (setting [8]) is 3.16 nM.
Turning to `CCN/C(=N\S(=O)(=O)c1ccc2[nH]ccc2c1)N1CC(C)(C)C=N1` [Compound 57], in series [2] (setting [6]), the Ki was 7.94 nM. In series [4] (setting [8]), the Kb was 2.51 nM.
Compound `CCN/C(=N\S(=O)(=O)c1cc(O)cc(Cl)c1)N1CC2(C=N1)CCCC2` [Compound 54] showed a melting point of 157 to 158 °C.
`CCN/C(=N\S(=O)(=O)c1cc(O)cc(Cl)c1)N1CC2(C=N1)CCNCC2` [Compound 52] yielded a melting point of 112 to 114 °C. In series [2] (setting [6]), the Ki is 7.94 nM.
In the case of `CCN/C(=N\S(=O)(=O)c1ccc2c(c1)NCC2)N1CC(CC)C=N1` (stereo not drawn) [Compound 33, 2,3-Dihydro-1H-indole-6-sulfonic acid ethylamino-(4-ethyl-4,5-dihydro-pyrazol-1-yl)-methyleneamide], in series [2] (setting [6]), the Ki was 501 nM.
`CCN/C(=N\S(=O)(=O)c1ccc(CO)cc1)N1CC2(C=N1)CCCC2` [Compound 40, N-[(2,3-Diaza-spiro[4.4]non-3-en-2-yl)-ethylamino-methylene]-4-hydroxymethyl-benzenesulfonamide]: in series [2] (setting [6]), the Ki is 631 nM.
With `CCN/C(=N\S(=O)(=O)c1ccc(N)c(Cl)c1)N1CC(CC)C=N1` (single isomer, unassigned) [Compound 12], the Ki in series [2] (setting [6]) was 1.58 nM. Further, the Kb in series [4] (setting [8]) is 1 nM.
On to `CCN/C(=N\S(=O)(=O)c1ccc2[nH]ccc2c1)N1CC2(C=N1)CCNCC2` [Compound 49], for which, in series [4] (setting [7]), the “5-HT6 pA2” value came to 8.8.
Consider `CCN/C(=N\S(=O)(=O)c1ccc(O)cc1)N1CC(CC)C=N1` (single isomer, unassigned) [Compound 21], for which the Ki in series [2] (setting [6]) is 10 nM. Besides, the Kb in series [4] (setting [8]) is 6.31 nM.
Compound `CCN/C(=N\S(=O)(=O)c1cccc(C(N)=O)c1)N1CC(CC)C=N1` (stereo not drawn) [Compound 44, 3-{[Ethylamino-(4-ethyl-4,5-dihydro-pyrazol-1-yl)-methylene]-sulfamoyl}-benzamide] had a melting point of 164 to 168 °C.
With `CCN/C(=N\S(=O)(=O)c1ccc(O)c(Cl)c1)N1CC(C)(C)C=N1` [Compound 27], in series [2] (setting [6]), the Ki is 15.8 nM. For the same compound, in series [4] (setting [8]), the Kb is 25.1 nM.
Regarding `CCN/C(=N\S(=O)(=O)c1ccc2[nH]ccc2c1)N1CC(CC)C=N1` (stereo not drawn) [Compound 18, 1H-Indole-5-sulfonic acid ethylamino-(4-ethyl-4,5-dihydro-pyrazol-1-yl)-methyleneamide], in series [2] (setting [6]), the Ki is 3.98 nM.
On to `CCN/C(=N\S(=O)(=O)c1cccc(O)c1)N1CC(C)(C)C=N1` [Compound 36, N-[(4,4-Dimethyl-4,5-dihydro-pyrazol-1-yl)-ethylamino-methylene]-3-hydroxy-benzenesulfonamide], for which, in series [2] (setting [6]), the Ki is 50.1 nM. In addition, the Kb in series [4] (setting [8]) was 31.6 nM.
For the compound `CCN/C(=N\S(=O)(=O)c1cccc(N)c1)N1CC(C)(C)C=N1` [Compound 30, 3-Amino-N-[(4,4-dimethyl-4,5-dihydro-pyrazol-1-yl)-ethylamino-methylene]-benzenesulfonamide], the Ki in series [2] (setting [6]) was 251 nM. The Kb in series [4] (setting [8]) is 126 nM.
Turning to `N/C(=N\S(=O)(=O)c1ccc(N)cc1)N1CC2(C=N1)CCOCC2` [Compound 9], in series [2] (setting [6]), the Ki was 251 nM. The Kb in series [4] (setting [8]) was 200 nM.
As to `CCN/C(=N\S(=O)(=O)c1ccc2[nH]ccc2c1)N1CC2(C=N1)CCCCC2` [Compound 60], the Ki in series [2] (setting [6]) is 3.16 nM.
As to `CCN/C(=N\S(=O)(=O)c1cccc(Cl)c1)N1CC2(C=N1)CCCC2` [Compound 49 from WO 2008/034863, reference compound], in series [2] (setting [5]), the Ki is 5.01 nM. Besides, in series [4] (setting [9]), the “5-HT6 pA2” value is recorded as 8.2.
As to `N/C(=N\S(=O)(=O)c1ccc(N)cc1)N1CC2(C=N1)CCCC2` [Compound 5], the Ki in series [2] (setting [6]) is 100 nM. For the same compound, the Kb in series [4] (setting [8]) was 79.4 nM.
The corresponding values for `CCN/C(=N\S(=O)(=O)c1ccc(O)cc1)N1CC(CC)C=N1` (single isomer, unassigned) [Compound 20] are 2 nM and 1 nM.
Take `CCN/C(=N\S(=O)(=O)c1ccc2c(c1)CCN2)N1CC(CC)C=N1` (stereo not drawn) [Compound 16, 2,3-Dihydro-1H-indole-5-sulfonic acid ethylamino-(4-ethyl-4,5-dihydro-pyrazol-1-yl)-methyleneamide]: the Ki in series [2] (setting [6]) is 12.6 nM. In series [4] (setting [8]), the Kb is 10 nM.
`CN/C(=N\S(=O)(=O)c1ccc(N)cc1)N1CC2(C=N1)CCOCC2` [Compound 8]: the Ki in series [2] (setting [6]) was 200 nM. Also, the Kb in series [4] (setting [8]) is 158 nM.
The corresponding values for `CCN/C(=N\S(=O)(=O)c1ccc(N)cc1)N1CC2(C=N1)CCOCC2` [Compound 7] are 63.1 nM and 25.1 nM.
The compound `CCN/C(=N\S(=O)(=O)c1cc(O)cc(Cl)c1)N1CC(CC)C=N1` (stereo not drawn) [Compound 53] had a melting point of 146 to 147 °C. Besides, in series [2] (setting [6]), the Ki is 5.01 nM.
As for `CCN/C(=N\S(=O)(=O)c1ccc(O)c(Cl)c1)N1CC(CC)C=N1` (stereo not drawn) [Compound 26, 3-Chloro-N-[ethylamino-(4-ethyl-4,5-dihydro-pyrazol-1-yl)-methylene]-4-hydroxy-benzenesulfonamide], in series [2] (setting [6]), the Ki is 10 nM.
`CCN/C(=N\S(=O)(=O)c1ccc(N)cc1)N1CC(CC)C=N1` (single isomer, unassigned) [Compound 2]: the Ki in series [2] (setting [6]) was 10 nM.
`CCN/C(=N\S(=O)(=O)c1ccc2c(c1)CCN2)N1CC(C)(C)C=N1` [Compound 56]: in series [2] (setting [6]), the Ki is 15.8 nM.
For the compound `CCN/C(=N\S(=O)(=O)c1ccc(N)cc1)N1CC(CC)C=N1` (single isomer, unassigned) [Compound 1], in series [2] (setting [6]), the Ki was 3.16 nM. Moreover, the Kb in series [4] (setting [8]) was 2 nM.
Take `CCN/C(=N\S(=O)(=O)c1cccc(Cl)c1)N1CC(C)(C)C=N1` [Compound 33 from WO 2008/034863, reference compound]: in series [2], the Ki was 25.1 nM. Moreover, in series [4] (setting [9]), the “5-HT6 pA2” value came out at 7.8.
`CCN/C(=N\S(=O)(=O)c1ccc(O)cc1)N1N=CCC1c1ccccc1` (stereo not drawn) [Compound 25, N-[Ethylamino-(5-phenyl-4,5-dihydro-pyrazol-1-yl)-methylene]-4-hydroxybenzene-sulfonamide] showed a melting point of 158 to 160 °C.
Compound `CCN/C(=N\S(=O)(=O)c1ccc(O)cc1)N1CC2(C=N1)CCCCC2` [Compound 24] gave a melting point of 140 to 142 °C.
